Laboratory results published in patent EP1763300B1 (priority 2004, dated 2006).
≈ marks a conversion by molar mass, not a printed value.

Tests used:
Assay type in all cases: physicochemical
[1] = Solubility in distilled water; details: no polymer, read-out: Löslichkeit in destilliertem Wasser
Source text: Verschiedene schlecht wasserlösliche Substanzen wurden eingesetzt, um die Eignung der erfindungsgemäßen Polymere als Lösungsvermittler zu testen. Tabelle 1

[2] = Solubilisation with polymer of Herstellungsbeispiel 1 by Verfahren 1 (solid solution), HPLC-UV; details: buffer with polymer, pH 6, 1440 min
[3] = Solubilisation with polymer of Herstellungsbeispiel 2 by Verfahren 1 (solid solution), HPLC-UV; details: buffer with polymer, pH 6, 1440 min
Experimental: 0,5 g eines Polymers und 0,1 g einer ausgewählten Substanz wurden in DMF (ca. 20 ml) gelöst. Das Gemisch wurde gerührt und DMF wurde vollständig evaporiert, so daß eine […] der organischen Moleküle in dem Polymer erhalten wurde. […] […] Nach der Filtration wurde die Lösung mittels HPLC analysiert (Detektor UV) und die Konzentration der Substanzen bestimmt.

## CC1(C)CCC(Cc2ccc(Cl)cc2)C1(O)Cn1cncn1 (centres unmarked) [Metconazol]
[1]
  solubility: 15 µg/mL (≈ 46.9 µM)

## COC(=O)N(OC)c1ccccc1COc1ccn(-c2ccc(Cl)cc2)n1 [Pyraclostrobin]
[1]
  solubility: 2.4 µg/mL (≈ 6.19 µM)

## CCCCC(CC)COC(=O)c1ccc(Nc2nc(Nc3ccc(C(=O)OCC(CC)CCCC)cc3)nc(Nc3ccc(C(=O)OCC(CC)CCCC)cc3)n2)cc1 (centres unmarked) [Uvinul T150®, Octyltriazon]
[2]
  Löslichkeit in Gegenwart von Polymer: 2,3 mg/l
[3]
  in Gegenwart von Polymer: 79 mg/L
[1]
  solubility: 0.007 µg/mL (≈ 0.0085 µM)

## CCOC(=O)/C(Cl)=C/c1cc(N2C(=O)C3=C(CCCC3)C2=O)ccc1Cl [Cinidon-Ethyl]
[2]
  Löslichkeit in Gegenwart von Polymer: 0,5 mg/l
[3]
  in Gegenwart von Polymer: 57 mg/L
[1]
  solubility: 0.057 µg/mL (≈ 0.145 µM)

## CN1C(C(=O)Nc2ccccn2)=C(O)c2ccccc2S1(=O)=O [Piroxicam]
[2]
  Löslichkeit in Gegenwart von Polymer: 92 mg/L
[3]
  in Gegenwart von Polymer: 167 mg/L
[1]
  solubility: 23 µg/mL (≈ 69.4 µM)
